{"source": "patent US11883410B2", "about": "“Preventative and therapeutic agents for sarcopenia” (NATIONAL UNIVERSITY CORPORATION TOKYO UNIVERSITY OF …, priority 2018, dated 2024)", "type_in_all_cases": "in vivo", "key": {"[1]": {"test_system": "tail-suspended mice (disuse muscle atrophy of lower limbs)", "assay": "Evaluation of inhibition of muscular atrophy in tail-suspended mice, Part 2", "conditions": "feed containing 0.01 mass % for 2 weeks during tail-suspension; vs control tail-suspension group", "method": "(§1) Eight-week-old C57/BL6J male mice (Japan SLC, Inc., Shizuoka, Japan) were subjected to the tail-suspension to obtain mice model with disuse muscle atrophy of their lower limbs.\nWhile the tail-suspension was performed, feed containing 0.01 mass % compound (1), compound (2), compound (3), compound (4), or compound (5) was fed for 2 weeks (compound (1) administration group, compound (2) administration group, compound (3) administration group, compound (4) administration group, and compound (5) administration group). […] The number of tests was n=8 in each group.\nTwo weeks after the initiation of the experiment (the initiation of the tail-suspension and the initiation of feeding with the feed that contained the compounds), micro-CT imaging of the mouse hind limbs was performed. The muscle volume at the periphery of the tibia (triceps surae muscle) was measured using 3D volumetric analysis software. Micro-CT imaging was performed using a microfocus X-ray CT system (micro-CT: SMX-90T, manufactured by Shimadzu Corporation).\nThe midpoint of the fibula in the lower limb of each mouse was determined using 3D images created from the micro-CT images, and the volume of total muscle mass at the measurement area starting from the midpoint was measured. […] The rate of increase was calculated according to the following: (compound administration group−control tail-suspension group)/(normal breeding group−control tail-suspension group)×100.\nFurthermore, the gastrocnemius muscle was collected from the mouse hind limb after the tail-suspension, and the wet mass (muscle mass) was measured. […] The rate of increase was calculated according to the following: (compound administration group−control tail-suspension group)/(normal breeding group−control tail-suspension group)×100.\n(§2) A Student's t-test was used for the significant difference test."}, "[2]": {"test_system": "tail-suspended mice (disuse muscle atrophy of lower limbs)", "assay": "Evaluation of inhibition of muscular atrophy in tail-suspended mice, Part 1", "conditions": "feed containing 0.01, 0.1 or 0.3 mass % for 2 weeks during tail-suspension; vs control tail-suspension group", "method": "Eight-week-old C57/BL6J male mice (Japan SLC, Inc., Shizuoka, Japan) were subjected to tail-suspension to obtain mice model with disuse muscle atrophy of their lower limbs.\nThe tail-suspension was performed according to the description in Skelet Muscle. 2015; 5:34. […] Tail-suspension is known to cause skeletal muscle mass loss and muscle strength loss in the hind limbs, whereby an experimental model with disuse muscle atrophy, which is one type of sarcopenia, can be produced.\nDuring the period of tail-suspension, feed containing 0.01, 0.1, or 0.3 mass % compound (1) was fed for 2 weeks (compound (1) administration groups). […] The number of tests was n=8 in each group.\nTwo weeks after the initiation of the experiment (the initiation of the tail-suspension and the initiation of feeding of the feed that contained the compound), micro-CT (micro-computed tomography) imaging of the mouse hind limbs was performed. The muscle volume at the periphery of the tibia (triceps surae muscle) was measured using 3D volumetric analysis software. Micro-CT imaging was performed using a microfocus X-ray CT system (micro-CT: SMX-90T manufactured by Shimadzu Corporation).\nThe midpoint of the fibula in the lower limb of each mouse was determined using 3D images created from the micro-CT images, and the volume of total muscle mass at the measurement area starting from the midpoint was measured. […]"}, "[3]": {"assay": "Evaluation of blood kinetics of compound in mice (mixed feed)", "conditions": "for Cmax / AUC(0-t): male, mouse, po, C57BL/6 mice, plasma, LC/MS; for AUC(0-t): read-out: AUC0-24 h", "method": "Mixed feed that contained 0.01, 0.1, or 0.3 mass % compound (1) were fed to 7-week-old C57BL/6 mice (male, Charles River Japan Ltd., weight: 20.7-23.7 g) for 13 days.\nBlood was collected from the face by using an animal lancet at 10 a.m., 1, 5, and 9 p.m. on day 12 and 10 a.m. on day 13.\nAbout 75 μL of blood was collected into a heparin-coated hematocrit tube. The concentration of the compound in the plasma after centrifugation was measured using liquid chromatography-mass spectrometry (LC/MS).\nSince a mouse with a body weight of about 20 g consumes about 4 g of the feed per day (spilling of food is not assumed), the daily intake of the compound is estimated to be 0.4 mg (0.01 mass % mixed feed), 4 mg (0.1 mass % mixed feed), or 12 mg (0.3 mass % mixed feed). The body weight conversion values were 20 mg/kg (0.01 mass % mixed feed), 200 mg/kg (0.1 mass % mixed feed), and 600 mg/kg (0.3 mass % mixed feed)."}, "[4]": {"test_system": "tail-suspended mice (disuse muscle atrophy of lower limbs)", "assay": "Inhibition of muscular atrophy in tail-suspended mice, Part 3 (feeding started one week after tail-suspension)", "conditions": "feed containing 0.3 mass % for 2 weeks starting one week after tail-suspension; vs control tail-suspension group", "method": "as §1\nOne week after tail-suspension, feed that contained 0.3 mass % compound (1) was fed for 2 weeks (compound (1) administration group). […] The number of tests was n=8 in each group.\nMicro-CT imaging of the mouse hind limbs was performed before tail suspension, 1 week after suspension, 2 weeks after suspension, and 3 weeks after suspension. The muscle volume at the periphery of the tibia (triceps surae muscle) was measured using 3D volumetric analysis software. Micro-CT imaging was performed using a microfocus X-ray CT system (micro-CT: SMX-90T, manufactured by Shimadzu Corporation).\nThe midpoint of the fibula in the lower limb of each mouse was determined using 3D images created from the micro-CT images, and the volume of total muscle mass at the measurement area starting from the midpoint was measured.\nFurthermore, the gastrocnemius muscle was collected from the mouse hind limb three weeks after the tail-suspension, and the wet mass (muscle mass) was measured.\nas §2"}, "[5]": {"conditions": "20 mg/kg, 0.01% mixed feed for 13 days"}, "[6]": {"conditions": "200 mg/kg, 0.1% mixed feed for 13 days"}, "[7]": {"conditions": "600 mg/kg, 0.3% mixed feed for 13 days"}}, "note": "Read-outs that look alike come from different tables or passages of the source.", "data": [{"smiles": "O=C(Nc1ccc(N2CCC(CCn3cncn3)C2)cc1)N1CCC(=Cc2ccccn2)CC1", "note": "(stereo not shown) [compound (4), N-(4-(3-(2-(1H-1,2,4-triazol-1-yl)ethyl)pyrrolidin-1-yl)phenyl)-4-(pyridin-2-ylmethylene)piperidine-1-carboxamide]", "values": [{"measurement": "muscle volume at the periphery of the tibia (triceps surae muscle), micro-CT (FIG. 6, FIG. 7)", "setting": "[1]", "result": "significant suppression of muscle mass loss"}, {"measurement": "wet mass (muscle mass) of gastrocnemius muscle (FIG. 8, FIG. 9)", "setting": "[1]", "result": "significant suppression of the decrease in the muscle amount"}]}, {"smiles": "Cn1cccc1C(=O)N1CCN(C(=O)Nc2ccc(N3CCC(C(=O)N4CCOCC4)CC3)cc2)CC1", "note": "[compound (1), 4-{(1-methyl-1H-pyrrol-2-yl)carbonyl}-N-[4-{4-(4-morpholinylcarbonyl)-1-piperidinyl}phenyl]-1-piperazine carboxamide]", "values": [{"measurement": "muscle volume at the periphery of the tibia (triceps surae muscle), micro-CT (FIG. 2)", "setting": "[2]", "result": "significant suppression of muscle mass loss"}, {"measurement": "wet mass (muscle mass) of gastrocnemius, soleus, tibialis anterior and extensor digitorum longus muscles (FIG. 3)", "setting": "[2]", "result": "a tendency to suppress a decrease in the muscle amount in all of the hind limb muscles"}, {"measurement": "Cmax", "setting": "[3]; [5]", "result": 0.23, "unit": "µM"}, {"measurement": "AUC(0-t)", "setting": "[3]; [5]", "result": 4.29, "unit": "µM·h"}, {"measurement": "Cmax", "setting": "[3]; [6]", "result": 2.21, "unit": "µM"}, {"measurement": "AUC(0-t)", "setting": "[3]; [6]", "result": 38.3, "unit": "µM·h"}, {"measurement": "Cmax", "setting": "[3]; [7]", "result": 6.41, "unit": "µM"}, {"measurement": "AUC(0-t)", "setting": "[3]; [7]", "result": 104, "unit": "µM·h"}, {"measurement": "compound concentration in blood", "setting": "[3]; mixed feed in the range of 0.01 mass % to 0.3 mass %", "result": "dose-dependent increase in the compound concentration in blood"}, {"measurement": "muscle volume at the periphery of the tibia (triceps surae muscle), micro-CT (FIG. 6, FIG. 7)", "setting": "[1]", "result": "significant suppression of muscle mass loss"}, {"measurement": "wet mass (muscle mass) of gastrocnemius muscle (FIG. 8, FIG. 9)", "setting": "[1]", "result": "significant suppression of the decrease in the muscle amount"}, {"measurement": "muscle volume change at the periphery of the tibia (triceps surae muscle), micro-CT (FIG. 11)", "setting": "[4]", "result": "significantly higher muscle amount at week 2 and week 3"}, {"measurement": "wet mass (muscle mass) of gastrocnemius muscle three weeks after tail-suspension (FIG. 12)", "setting": "[4]", "result": "significant therapeutic effect on the muscle amount"}]}, {"smiles": "c1ccc(C(OC2CCN(CCCc3nnn[nH]3)CC2)c2ccccc2)cc1", "note": "[compound (2), 4-(diphenylmethoxy)-1-[3-(2H-tetrazol-5-yl)propyl]piperidine]", "values": [{"measurement": "muscle volume at the periphery of the tibia (triceps surae muscle), micro-CT (FIG. 6, FIG. 7)", "setting": "[1]", "result": "did not show significant suppression of muscle mass loss although a tendency toward suppression was observed"}, {"measurement": "wet mass (muscle mass) of gastrocnemius muscle (FIG. 8, FIG. 9)", "setting": "[1]", "result": "did not show a significant difference although a tendency toward suppression of the decrease in the muscle amount was observed"}]}, {"smiles": "Cn1cccc1C(=O)N1CCN(C(=O)NC2CCN(c3ccc(CCn4ccnn4)cc3)CC2)CC1", "note": "[compound (5), 4-((1-methylpyrrol-2-yl)-carbonyl)-N-(1-(4-(2-(1H-1,2,3-triazol-1-yl)-ethyl)-phenyl)-piperidin-4-yl)-1-piperazine carboxamide]", "values": [{"measurement": "muscle volume at the periphery of the tibia (triceps surae muscle), micro-CT (FIG. 6, FIG. 7)", "setting": "[1]", "result": "significant suppression of muscle mass loss"}, {"measurement": "wet mass (muscle mass) of gastrocnemius muscle (FIG. 8, FIG. 9)", "setting": "[1]", "result": "significant suppression of the decrease in the muscle amount"}]}]}
